Test results reported in ChEMBL document CHEMBL4330076, “Quinazolin-2,4-dione-Based Hydroxamic Acids as Selective Histone Deacetylase-6 Inhibitors for Treatment of Non-Small Cell Lung Cancer” (J Med Chem, 2019).

Key:
[1] = molecular target: T1, Protein deacetylase HDAC6 (Homo sapiens, UniProt Q9UBN7); test: Competitive inhibition of human full-length recombinant HDAC6 expressed in baculovirus infected Sf9 insect cells using Boc-Lys (Ac)-AMC as substrate preincubated for 10 mins followed by substrate addition and measured after 30 mins by fluorescence assay
T1 sequence (Q9UBN7 whole entry): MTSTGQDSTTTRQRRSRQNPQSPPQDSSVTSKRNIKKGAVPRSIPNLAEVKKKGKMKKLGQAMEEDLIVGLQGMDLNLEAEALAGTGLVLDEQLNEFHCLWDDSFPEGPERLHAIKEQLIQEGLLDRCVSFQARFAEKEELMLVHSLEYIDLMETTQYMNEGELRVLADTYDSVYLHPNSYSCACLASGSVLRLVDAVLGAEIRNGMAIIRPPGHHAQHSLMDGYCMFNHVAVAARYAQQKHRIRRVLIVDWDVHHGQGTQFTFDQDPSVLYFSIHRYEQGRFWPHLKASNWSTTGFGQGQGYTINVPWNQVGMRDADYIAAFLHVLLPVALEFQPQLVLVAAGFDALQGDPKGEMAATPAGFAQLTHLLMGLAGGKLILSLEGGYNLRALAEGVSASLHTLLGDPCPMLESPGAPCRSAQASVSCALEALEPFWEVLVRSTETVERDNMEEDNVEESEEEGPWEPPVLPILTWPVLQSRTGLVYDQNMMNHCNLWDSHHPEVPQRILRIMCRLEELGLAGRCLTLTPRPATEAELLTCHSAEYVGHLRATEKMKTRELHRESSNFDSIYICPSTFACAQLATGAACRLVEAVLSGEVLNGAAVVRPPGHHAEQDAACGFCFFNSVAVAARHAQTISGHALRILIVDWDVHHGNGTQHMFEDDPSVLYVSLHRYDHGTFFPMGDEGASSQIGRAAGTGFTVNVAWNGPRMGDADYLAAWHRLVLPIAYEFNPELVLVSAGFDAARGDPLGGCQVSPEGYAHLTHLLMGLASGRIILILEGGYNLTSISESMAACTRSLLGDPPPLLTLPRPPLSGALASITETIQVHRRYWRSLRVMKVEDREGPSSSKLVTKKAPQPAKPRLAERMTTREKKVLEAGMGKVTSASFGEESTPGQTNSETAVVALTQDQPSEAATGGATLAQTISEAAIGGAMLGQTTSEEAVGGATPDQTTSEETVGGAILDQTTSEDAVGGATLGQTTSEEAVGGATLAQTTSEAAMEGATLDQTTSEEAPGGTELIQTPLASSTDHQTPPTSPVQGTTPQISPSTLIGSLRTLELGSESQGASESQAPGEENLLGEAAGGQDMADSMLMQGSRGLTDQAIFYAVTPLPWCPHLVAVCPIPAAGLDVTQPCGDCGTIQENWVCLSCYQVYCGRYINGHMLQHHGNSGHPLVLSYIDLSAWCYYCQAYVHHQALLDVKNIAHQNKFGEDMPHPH

[2] = molecular target: T1, Protein deacetylase HDAC6; test: Competitive inhibition of human HDAC6 CD2 expressed in Escherichia coli BL21 (RIL) using Boc-Lys (Ac)-AMC as substrate preincubated for 10 mins followed by substrate addition and measured after 30 mins by fluorescence assay
[3] = system: Lewis lung carcinoma cell line; test: Induction of apoptosis in mouse LL/2 cells assessed as viable cells at 4 uM after 24 hrs in presence of paclitaxel by Annexin V/propidium iodide staining-based flow cytometric analysis (reference value: 82.3%); assay type: functional
[4] = system: Lewis lung carcinoma cell line; test: Induction of apoptosis in mouse LL/2 cells assessed as early apoptotic cells at 4 uM after 24 hrs in presence of paclitaxel by Annexin V/propidium iodide staining-based flow cytometric analysis (reference value: 1.8%); assay type: functional
[5] = system: Lewis lung carcinoma cell line; test: Induction of apoptosis in mouse LL/2 cells assessed as late apoptotic cells at 4 uM after 24 hrs in presence of paclitaxel by Annexin V/propidium iodide staining-based flow cytometric analysis (reference value: 8.7%); assay type: functional
A549 [6] = test: Induction of apoptosis in human A549 cells assessed as viable cells at 4 uM after 24 hrs by Annexin V/propidium iodide staining-based flow cytometric analysis (reference value: 96.2%); assay type: functional
A549 [7] = test: Induction of apoptosis in human A549 cells assessed as early apoptotic cells at 4 uM after 24 hrs by Annexin V/propidium iodide staining-based flow cytometric analysis (reference value: 1.2%); assay type: functional
A549 [8] = test: Induction of apoptosis in human A549 cells assessed as necrotic cells at 4 uM after 24 hrs by Annexin V/propidium iodide staining-based flow cytometric analysis (reference value: 1.1%); assay type: functional
A549 [9] = test: Induction of apoptosis in human A549 cells assessed as late apoptotic cells at 4 uM after 24 hrs in presence of paclitaxel by Annexin V/propidium iodide staining-based flow cytometric analysis (reference value: 1.6%); assay type: functional
[10] = system: Lewis lung carcinoma cell line; test: Antitumor activity against mouse LL/2 cells implanted in C57BL/6 mouse assessed as tumor growth inhibition at 40 to 80 mg/kg, po qd administered for 21 consecutive days relative to control; assay type: functional
[11] = AUC (0 to 24 hrs) in C57BL/6 mouse lung at 40 mg/kg, po administered via gavage by LC-MS/MS analysis; assay type: ADME, organism-based; parameters: time < 24 hr, dose 40 mg/kg, route oral; details: in vivo
[12] = Ratio of compound AUC (0 to 24 hrs) to ACY-1215 AUC (0 to 24 hrs) in C57BL/6 mouse kidney at 40 mg/kg, po administered via gavage by LC-MS/MS analysis; assay type: ADME, organism-based; details: in vivo
[13] = Ratio of AUC (0 to 24 hrs) in lung to plasma of C57BL/6 mouse at 40 mg/kg, po administered via gavage by LC-MS/MS analysis; assay type: ADME, organism-based; details: read-out: Ratio AUC
[14] = Drug metabolism in C57BL/6 mouse liver assessed as hydrolysis metabolite formation at 40 mg/kg, po administered via gavage by LC-MS/MS analysis; assay type: ADME, organism-based; details: in vivo
[15] = Drug uptake in C57BL/6 mouse lung at 40 mg/kg, po administered via gavage by LC-MS/MS analysis; assay type: ADME, organism-based; details: in vivo
[16] = Ratio of drug uptake in C57BL/6 mouse lung at 40 mg/kg, po administered via gavage co-administered with paclitaxel at 10 mg/kg, ip by LC-MS/MS analysis to drug uptake in C57BL/6 mouse lung at 40 mg/kg, po administered via gavage by LC-MS/MS analysis; assay type: ADME, organism-based; details: in vivo
[17] = Ratio of drug uptake in C57BL/6 mouse kidney at 40 mg/kg, po administered via gavage co-administered with paclitaxel at 10 mg/kg, ip by LC-MS/MS analysis to drug uptake in C57BL/6 mouse kidney at 40 mg/kg, po administered via gavage by LC-MS/MS analysis; assay type: ADME, organism-based; details: in vivo
[18] = Ratio of drug uptake in C57BL/6 mouse plasma at 40 mg/kg, po administered via gavage co-administered with paclitaxel at 10 mg/kg, ip by LC-MS/MS analysis to drug uptake in C57BL/6 mouse plasma at 40 mg/kg, po administered via gavage by LC-MS/MS analysis; assay type: ADME, organism-based; details: in vivo
[19] = Drug metabolism in C57BL/6 mouse plasma assessed as hydrolysis metabolite formation at 40 mg/kg, po administered via gavage by LC-MS/MS analysis; assay type: ADME, organism-based; details: in vivo

Structure (SMILES): O=C(NO)c1ccc(Cn2c(=O)n(CCc3ccccc3)c(=O)c3ccccc32)cc1
- Ki [1]: 1.6 nM
- Ki [2]: 3.7 nM
- Activity [3]: 64.8%
- Activity [4]: 8.8%
- Activity [5]: 21.2%
- Activity (A549 [6]): 97.4%
- Activity (A549 [7]): 1.3%
- Activity (A549 [8]): 0.7%
- Activity (A549 [9]): 1.3%
- TGI [10]: 63.4%
- AUC [11]: 1335 ng·h/g
- Ratio AUC [12]: 0.8
- Kp [13]: 18.8
- Drug metabolism [14]: Metabolite_Detected
- Drug uptake [15]: 212 ng/g
- Ratio [16]: 1.6
- Ratio [17]: 3
- Ratio [18]: 12.3
- Drug metabolism [19]: Metabolite_Detected
